Measured values taken from patent publication US20180346513A1, “METHOD FOR OBTAINING TUMOR PEPTIDES AND USES THEREOF” (ISTITUTO EUROPEO DI ONCOLOGIA S.R.L., priority 2015, published 2018).
Where a SMILES comes first, the peptide text is derived from it. The star is where a group is joined. Cbz = O=C(OCc1ccccc1)*

Tests used:
[1] = test system: Salmonella SL3261AT; assay: Antibody response (total IgG, ELISA) to Salmonella after immunization with supernatant in IFA; type: in vivo, mice; details: B16 cells treated with inhibitor before supernatant collection
Procedure: (§1) Mice were immunized subcutaneusly with 100 μL of emulsion with supernatant containing released peptides and either Freund's Complete Adjuvant (CFA) or Freund's Incomplete Adjuvant (IFA). Nine days after the immunization, mice were killed, popliteal lymph nodes were smashed and cells were plated in flat-bottom 96-well plates and stimulated with PPD (3 μg/mL), OVA protein (30 μg/mL), OVA peptide 323-339 (3 μg/mL) or OVA peptide 257-264 (3 μg/mL). After 72 hours, the supernatant was collected and IFN-γ production was measured by ELISA.
(§2) To evaluate antibody response mice were killed four weeks after immunization, and serum was collected. The antibody titer to Salmonella and B16 antigens was evaluated by ELISA.
(§3) In order to identify the type of released tumor antigens, C57BL/6J mice were immunized subcutaneously with supernatant obtained from Salmonella infected or uninfected B16 cells treated or not with the gap-junction blocker (heptanol) or the proteasome inhibitor (MG132), emulsified with Freund's Incomplete adjuvant (IFA). Four weeks later inventors evaluated the amount of total IgG specific to Salmonella SL3261AT and to mouse melanoma cell line B16 by ELISA.

[2] = test system: mouse melanoma cell line B16; assay: Antibody response (total IgG, ELISA) to B16 after immunization with supernatant in IFA; type: in vivo, mice; details: B16 cells treated with inhibitor before supernatant collection
Procedure: as §1, §2, §3

[3] = test system: C57BL/6J mice; assay: In vivo immunization with supernatant in CFA, IFN-gamma after in vitro recall of lymph node cells; details: B16 OVA cells treated with heptanol
Procedure: Mice were immunized subcutaneusly with 100 μL of emulsion with supernatant containing released peptides and either Freund's Complete Adjuvant (CFA) or Freund's Incomplete Adjuvant (IFA). […] After 72 hours, the supernatant was collected and IFN-γ production was measured by ELISA.
To investigate whether the tumor peptides released from infected tumor cells could induce an in vivo immune response, C57BL/6J mice were immunized in the footpad with supernatant, obtained from B16 OVA cells infected or not with Salmonella SL3261AT, emulsified with Freund's complete adjuvant (CFA).
Briefly, nine days after immunization, the popliteal lymph nodes were removed and cells were stimulated in vitro with PPD (Tuberculin purified protein derivated), as a positive control, and OVA protein. After 72 hours of incubation, the amount of IFN-gamma secretion was assessed by ELISA to evaluate the activation of immune cells.

[4] = molecular target: T1, connexin hemichannels on the surface of melanoma cells (Mus musculus, UniProt P23242); assay: Adenosine 5'-triphosphate (ATP) bioluminescent assay, extracellular ATP of B16 and B16 OVA cells; type: cell-based; details: B16 and B16 OVA cells pretreated with heptanol (1 mM)
T1 construct: opening of connexin hemichannels on the surface of melanoma cells; endogenous in cells; host or cells: B16 and B16 OVA mouse melanoma cells
T1 sequence (P23242 2-382): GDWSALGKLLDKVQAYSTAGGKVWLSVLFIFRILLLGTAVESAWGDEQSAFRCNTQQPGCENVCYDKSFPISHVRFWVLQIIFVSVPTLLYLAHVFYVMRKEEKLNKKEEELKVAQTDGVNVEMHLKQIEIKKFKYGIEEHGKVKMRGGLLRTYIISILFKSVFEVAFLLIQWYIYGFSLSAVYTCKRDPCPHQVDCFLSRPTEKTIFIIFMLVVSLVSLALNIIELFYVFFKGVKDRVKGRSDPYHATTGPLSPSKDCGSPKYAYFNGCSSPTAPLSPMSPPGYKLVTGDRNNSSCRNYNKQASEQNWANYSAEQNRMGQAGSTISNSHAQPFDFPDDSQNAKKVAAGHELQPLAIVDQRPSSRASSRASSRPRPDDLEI
Procedure: Single bacterial colonies were grown overnight and restarted the next day to reach an absorbance at 600 nm ranging between 0.550 and 0.650 corresponding to 0,550-0,650×10^9 colony—forming units (CFUs)/mL. Tumor cells were incubated with or without Gap Junctions blocker, Heptanol (1 mM) for 1 hour and half at 37° C. Then, cells were incubated with bacteria for 1 hour and half at 37° C. at a cell-to-bacteria ratio of 1:50, in the appropriate medium without antibiotics. After incubation, the cells were washed and incubated at 37° C. in medium supplemented with gentamicin ([…]) for 2 hours. […]
Adenosine 5′-triphosphate (ATP) Biolumescent Assay (CellTiter-Glo Luminescent cell viability Assay, Promega) allow to measure the quantity of ATP containing in the samples. […]
Briefly, 100 μL of Assay Mix solution were added to a reaction vial for 3 minutes at room temperature; then rapidly were added […] of sample diluent, mixed and immediately measured the amount of light produced. […]
In order to assess whether Salmonella is able to stimulate the opening of connexin hemichannels on the surface of melanoma cells, inventors measured ATP extracellular concentration using an adenosine 5′-thriphosfate (ATP) bioluminescent assay (as described in Materials and Methods) in Salmonella treated B16 cells. […]

[5] = test system: MHC class I complex on the surface of T2 cells; assay: T2 assay for peptide binding (stabilization of HLA-A0201 on T2 cells); type: cell-based, human; details: tumor cells treated with the gap junction blocker before infection
Procedure: The next day, the cells were washed with FACS buffer (PBS, 0.1% sodium azide, 5% fetal bovin serum) and incubated for 10 min with blocking buffer (200 μg/mL mouse IgG in FACS buffer). Then, the cells were incubated for 20 minutes at +4° C. with BB7.2, an HLA-A2 conformation specific mouse antibody. The cells were washed twice with FACS buffer and fixed in paraformaldehyde for later acquisition by Accuri C6 Flow Cytometer (BD).
In order to investigate the release of MHC class I peptides by Salmonella infected tumor cells, inventors exploited the ability of exogenous peptides to stabilize the MHC class I complex on the surface of T2 cells. T2 are an HLA-A0201 hybrid human cell line lacking TAP-2 (transporter-associated with antigen processing) and consequently are defective in loading class I molecules with antigenic peptides generated in the cytosol. This leads to very unstable MHC class I molecules on the cell surface. […]
Briefly, inventors infected human melanoma cells SKmel-24 and colorectal adenocarcinoma cells HT29, with Vivofit®, an oral typhoid vaccine that contains live, attenuated cells of the bacteria Salmonella enterica serovar Thyphi (TY21a), and inventors collected the supernatant as described in Materials and Methods. […] Surface expression of HLA-A0201 was evaluated using a conformation-specific mouse antibody, as described in Materials and Methods.

[6] = test system: Mart-1 (26-35) specific CTLs; assay: IFN-gamma production of Mart-1 specific CTLs cocultured with moDCs or PDC loaded with supernatant; type: cell-based, human
Procedure: To generate peptide-specific CTLs from PBMC, 106 PBMC HLA-A2+ were cultured in 1 mL of RPMI 1640 medium (supplemented with 5% human serum, 2 mM L-Glutamine, 100 U/mL Penicillin, 100 μg/mL Streptomycin, 10 μg/mL Gentamicin, 10 μg/mL beta-mercaptoethanol and 1% nonessential amino acids) in 24-well-plates. To this, 2×106 Mart-1-pulsed and irradiated (10 Gy) PBMC (HLA-A2) were added as antigen presenting cells in the same medium supplemented with 100 U/mL IL-2. To pulse PBMC they were incubated for 90 minutes at 37° C. in RPMI supplemented with 50 μM of peptide. After incubation, cell were washed twice and irradiated before mixing with the responding cells. The cells were stimulated at intervals of 10 days with irradiated peptide-pulsed autologous PBMC and 100 U/mL IL-2.
To evaluate the release of antigenic peptides inventors infected human melanoma cells SKmel24 and 624.38 with Salmonella TY21a in presence or not of heptanol and the supernatant was harvested as described in Materials and Methods.
After 72 hours of coculture, the amount of IFN-gamma secretion was measured by ELISA.

Row | Compound | Effect on antibody response to Salmonella antigens [1] | Effect on antibody response to B16 tumor peptides [2] | Effect on IFN-gamma production induced by supernatant immunization [3] | Effect on Salmonella-induced release of extracellular ATP [4] | Effect on the MFI increase by supernatant of infected tumor cells [5] | Effect on CTL activation by supernatant of infected melanoma cells ([6]; tumor cells treated with the gap junction blocker) | Response of CTLs after exogenous addition of peptide ([6]; exogenous addition to blocker-treated condition)
1 | CC(C)C[C@@H](C=O)NC(=O)[C@H](CC(C)C)NC(=O)[C@H](CC(C)C)NC(=O)OCc1ccccc1 [MG132] (Cbz-Leu-Leu-Leu-aldehyde) | reduced | reduced |  |  |  |  | 
2 | CCCCCCCO [heptanol] | reduced | reduced | reduced | significantly reduced | abolished | significantly inhibits | 
3 | Mart-1 (26-35): Mart-1 (26-35) peptide, positive control |  |  |  |  |  |  | restored completely the response
